{"source": "patent US20180256673A1", "about": "“METHODS FOR TREATING FUNGAL INFECTIONS” (priority 2015, published 2018)", "key": {"[1]": {"test_system": "Candida albicans", "experiment": "Broth microdilution of invasive fungal isolates (CLSI M27-A3/M38-A2)", "type": "cell-based"}, "[2]": {"test_system": "Candida dubliniensis", "experiment": "Broth microdilution of invasive fungal isolates (CLSI M27-A3/M38-A2)", "type": "cell-based"}, "[3]": {"test_system": "Cryptococcus neoformans var. grubii", "experiment": "Broth microdilution of invasive fungal isolates (CLSI M27-A3/M38-A2)", "type": "cell-based"}, "[4]": {"test_system": "C. albicans NRRL Y-477", "type": "cell-based, Candida albicans", "method": "(§1) Spontaneous mutant selection. […] Three individual colonies from each strain were used to start cultures in RPMI. […] One milliliter aliquots were spread onto SDA plates containing drug with sterile glass beads. Starting viable count was enumerated by triplicate plating of serial dilutions of the starting inoculum. […] Glycerol stocks of putative mutant colonies were stored at −80° C. […] Spontaneous mutation frequencies were calculated by dividing the number of resistant colonies on a given plate by the starting inoculum plated. A subset of mutants (weighted heavily towards those selected with CMP1) were then evaluated by MIC and sequencing of FKS gene hot spot regions."}, "[5]": {"test_system": "Candida orthopsilosis", "experiment": "Broth microdilution of invasive fungal isolates (CLSI M27-A3/M38-A2)", "type": "cell-based"}, "[6]": {"test_system": "C. glabrata ATCC 90030, ATCC 2001", "type": "cell-based, Candida glabrata", "details": "for Freq. (replicate mutation frequency): replicate plates 1-3; for Plate concentration: SDA, minimum concentration to cleanly inhibit growth", "method": "as §1"}, "[7]": {"test_system": "C. parapsilosis vaginal isolates", "experiment": "Susceptibility testing of VVC clinical isolates at pH 7 and 4 (CLSI M27-A3)", "type": "cell-based, Candida parapsilosis"}, "[8]": {"test_system": "Candida krusei", "experiment": "Broth microdilution of invasive fungal isolates (CLSI M27-A3/M38-A2)", "type": "cell-based"}, "[9]": {"test_system": "C. tropicalis vaginal isolates", "experiment": "Susceptibility testing of VVC clinical isolates at pH 7 and 4 (CLSI M27-A3)", "type": "cell-based", "details": "Candida tropicalis"}, "[10]": {"test_system": "C. krusei ATCC 6258", "experiment": "microbe, parasite or virus in culture", "type": "cell-based, Candida krusei", "details": "for MIC: Pichia kudriavzevii"}}, "note": "Values joined by “and” are separate entries in the source; they are usually repeats but may differ in a detail not shown here. Equal values may be shown once. Read-outs that look alike come from different tables or passages of the source. Starred links: 1 amine or outer side, 2 acyl side, 3 side chain; linkers in the order of their positions; H or OH if unused. Positions of bridges follow the written chain, without caps; N, C: chain ends. Non-standard residues stand in square brackets, D forms with d. Residues, ends and D or L forms follow the SMILES beside them. *: point of attachment. pTerphenylCO(4''-OnC5H11) = CCCCCOc1ccc(-c2ccc(-c3ccc(C(=O)*)cc3)cc2)cc1; Orn(4R-OH,5R-OH) = O=C([C@H](C[C@@H](O)[C@@H](O)N[*:3])N[*:1])[*:2]; hTyr(3S-OH,4S-OH) = N[C@H](C(=O)O)[C@H](O)[C@@H](O)c1ccc(O)cc1; Pro(3S-OH,4S-Me) = C[C@H]1CN[C@H](C(=O)O)[C@H]1O; Hyp = O=C(O)[C@@H]1C[C@@H](O)CN1"}
{"smiles": "CCCCCOc1ccc(-c2ccc(-c3ccc(C(=O)N[C@H]4C[C@@H](O)[C@@H](O)NC(=O)[C@@H]5[C@@H](O)[C@@H](C)CN5C(=O)[C@H]([C@@H](C)O)NC(=O)[C@H]([C@H](O)[C@@H](O)c5ccc(O)cc5)NC(=O)[C@@H]5C[C@@H](O)CN5C(=O)[C@H]([C@@H](C)O)NC4=O)cc3)cc2)cc1", "note": "[ANID, anidulafungin] ({pTerphenylCO(4''-OnC5H11)}-[Orn(4R-OH,5R-OH)]T[Hyp][hTyr(3S-OH,4S-OH)]T[Pro(3S-OH,4S-Me)]; lactam 1-C)", "values": [{"measurement": "Cumulative % of isolates inhibited at MIC ≤0.008 μg/mL", "setting": "[1]; 251 isolates", "value": "(27.5) %"}, {"measurement": "Number of isolates inhibited at MIC 0.015 μg/mL", "setting": "[1]; 251 isolates", "value": 101}, {"measurement": "Number of isolates inhibited at MIC 0.03 μg/mL", "setting": "[1]; 251 isolates", "value": 54}, {"measurement": "Number of isolates inhibited at MIC 0.06 μg/mL", "setting": "[1]; 251 isolates", "value": 22}, {"measurement": "Number of isolates inhibited at MIC 0.12 μg/mL", "setting": "[1]; 251 isolates", "value": 5}, {"measurement": "Number of isolates inhibited at MIC ≤0.008 μg/mL", "setting": "[1]; 251 isolates", "value": 69}, {"measurement": "MIC50", "setting": "[1]; Candida albicans", "value": 0.015, "unit": "µg/mL"}, {"measurement": "MIC90", "setting": "[1]; Candida albicans", "value": 0.06, "unit": "µg/mL"}, {"measurement": "Cumulative % of isolates inhibited at MIC 0.015 μg/mL", "setting": "[2]; 11 isolates", "value": "(9.1) %"}, {"measurement": "Cumulative % of isolates inhibited at MIC 0.03 μg/mL", "setting": "[2]; 11 isolates", "value": "(36.4) %"}, {"measurement": "Cumulative % of isolates inhibited at MIC 0.06 μg/mL", "setting": "[2]; 11 isolates", "value": "(100.0) %"}, {"measurement": "Number of isolates inhibited at MIC 0.015 μg/mL", "setting": "[2]; 11 isolates", "value": 1}, {"measurement": "Number of isolates inhibited at MIC 0.03 μg/mL", "setting": "[2]; 11 isolates", "value": 3}, {"measurement": "Number of isolates inhibited at MIC 0.06 μg/mL", "setting": "[2]; 11 isolates", "value": 7}, {"measurement": "MIC50", "setting": "[2]; Candida dubliniensis", "value": 0.06, "unit": "µg/mL"}, {"measurement": "MIC90", "setting": "[2]; Candida dubliniensis", "value": 0.06, "unit": "µg/mL"}, {"measurement": "Cumulative % of isolates inhibited at MIC >8 μg/mL", "setting": "[3]; 19 isolates", "value": "(100.0) %"}, {"measurement": "Number of isolates inhibited at MIC >8 μg/mL", "setting": "[3]; 19 isolates", "value": 19}, {"measurement": "MIC50", "setting": "[3]; Cryptococcus neoformans", "value": 8, "unit": "µg/mL"}, {"measurement": "MIC90", "setting": "[3]; Cryptococcus neoformans", "value": 8, "unit": "µg/mL"}, {"measurement": "Median mutation frequency", "setting": "[4]", "value": "1.59E−07"}, {"measurement": "Plate concentration", "setting": "[4]; SDA, minimum concentration to cleanly inhibit growth", "value": 0.015, "unit": "µg/mL"}, {"measurement": "Freq. (replicate mutation frequency)", "setting": "[4]; replicate plates 1-3", "value": "1.88E−07 and 1.59E−07 and 1.56E−07"}, {"measurement": "Cumulative % of isolates inhibited at MIC 0.25 μg/mL", "setting": "[5]; 10 isolates", "value": "(30.0) %"}, {"measurement": "Cumulative % of isolates inhibited at MIC 0.5 μg/mL", "setting": "[5]; 10 isolates", "value": "(50.0) %"}, {"measurement": "Cumulative % of isolates inhibited at MIC 1 μg/mL", "setting": "[5]; 10 isolates", "value": "(90.0) %"}, {"measurement": "Cumulative % of isolates inhibited at MIC 2 μg/mL", "setting": "[5]; 10 isolates", "value": "(100.0) %"}, {"measurement": "Number of isolates inhibited at MIC 0.25 μg/mL", "setting": "[5]; 10 isolates", "value": 3}, {"measurement": "Number of isolates inhibited at MIC 0.5 μg/mL", "setting": "[5]; 10 isolates", "value": 2}, {"measurement": "Number of isolates inhibited at MIC 1 μg/mL", "setting": "[5]; 10 isolates", "value": 4}, {"measurement": "Number of isolates inhibited at MIC 2 μg/mL", "setting": "[5]; 10 isolates", "value": 1}, {"measurement": "MIC50", "setting": "[5]; Lodderomyces orthopsilosis", "value": 0.5, "unit": "µg/mL"}, {"measurement": "MIC90", "setting": "[5]; Lodderomyces orthopsilosis", "value": 1, "unit": "µg/mL"}, {"measurement": "Median mutation frequency", "setting": "[6]; ATCC 2001", "value": "7.02E−08"}, {"measurement": "Freq. (replicate mutation frequency)", "setting": "[6]; ATCC 2001", "value": "7.02E−08 and 6.71E−08 and 1.09E−07"}, {"measurement": "Median mutation frequency", "setting": "[6]; ATCC 90030", "value": "9.01E−09"}, {"measurement": "Freq. (replicate mutation frequency)", "setting": "[6]; ATCC 90030", "value": "4.41E−09 and 2.10E−08 and 9.01E−09"}, {"measurement": "Plate concentration", "setting": "[6]; ATCC 2001", "value": 0.125, "unit": "µg/mL"}, {"measurement": "Plate concentration", "setting": "[6]; ATCC 90030", "value": 0.125, "unit": "µg/mL"}, {"measurement": "MIC90", "setting": "[7]; 24 h, pH 4", "value": 1, "unit": "µg/mL"}, {"measurement": "MIC90", "setting": "[7]; 24 h, pH 7", "value": 2, "unit": "µg/mL"}, {"measurement": "MIC90", "setting": "[7]; 48 h, pH 4", "value": 2, "unit": "µg/mL"}, {"measurement": "MIC90", "setting": "[7]; 48 h, pH 7", "value": 4, "unit": "µg/mL"}, {"measurement": "Cumulative % of isolates inhibited at MIC 0.015 μg/mL", "setting": "[8]; 16 isolates", "value": 6.2, "unit": "%"}, {"measurement": "Cumulative % of isolates inhibited at MIC 0.03 μg/mL", "setting": "[8]; 16 isolates", "value": "(43.8) %"}, {"measurement": "Cumulative % of isolates inhibited at MIC 0.06 μg/mL", "setting": "[8]; 16 isolates", "value": "(100.0) %"}, {"measurement": "Number of isolates inhibited at MIC 0.015 μg/mL", "setting": "[8]; 16 isolates", "value": 1}, {"measurement": "Number of isolates inhibited at MIC 0.03 μg/mL", "setting": "[8]; 16 isolates", "value": 6}, {"measurement": "Number of isolates inhibited at MIC 0.06 μg/mL", "setting": "[8]; 16 isolates", "value": 9}, {"measurement": "MIC50", "setting": "[8]; Pichia kudriavzevii", "value": 0.06, "unit": "µg/mL"}, {"measurement": "MIC90", "setting": "[8]; Pichia kudriavzevii", "value": 0.06, "unit": "µg/mL"}, {"measurement": "MIC90", "setting": "[9]; 24 h, pH 4", "value": 0.125, "unit": "µg/mL"}, {"measurement": "MIC90", "setting": "[9]; 24 h, pH 7", "value": 0.03, "unit": "µg/mL"}, {"measurement": "MIC90", "setting": "[9]; 48 h, pH 4", "value": 0.5, "unit": "µg/mL"}, {"measurement": "MIC90", "setting": "[9]; 48 h, pH 7", "value": 0.06, "unit": "µg/mL"}, {"measurement": "MIC fold-shift", "setting": "[10]; ATCC 6258, WT to P20", "value": 2}, {"measurement": "MIC", "setting": "[10]; ATCC6258", "value": 0.125, "unit": "µg/mL"}, {"measurement": "MIC", "setting": "[10]; ATCC6258, read-out: MIC P20", "value": 0.125, "unit": "µg/mL"}]}
